According to US12528800B2, “Pesticidal compounds” (BASF SE, priority 2018, dated 2026):

Assays:
Assay type in all cases: in vivo
[1] = tested on: boll weevil (Anthonomus grandis); experiment: Action on boll weevil (Anthonomus grandis), microtiter plate diet test; conditions: 120 h, egg and larval mortality after 5 days, read-out: mortality in comparison with untreated controls
Description: For evaluating control of boll weevil (Anthonomus grandis) the test unit consisted of 96-well-microtiter plates containing an insect diet and 5-10 A. grandis eggs.
The compounds were formulated using a solution containing 75% (v/v) water and 25% (v/v) DMSO. Different concentrations of formulated compounds were sprayed onto the insect diet at 5 μl, using a custom built micro atomizer, at two replications.
After application, microtiter plates were incubated at about 25+1° C. and about 75+5% relative humidity for 5 days. Egg and larval mortality was then visually assessed.

[2] = tested on: tobacco budworm (Heliothis virescens); experiment: Action on tobacco budworm (Heliothis virescens), microtiter plate diet test; conditions: 120 h, egg and larval mortality after 5 days, read-out: mortality in comparison with untreated controls
Description: For evaluating control of tobacco budworm (Heliothis virescens) the test unit consisted of 96-well-microtiter plates containing an insect diet and 15-25 H. virescens eggs.
The compounds were formulated using a solution containing 75% v/v water and 25% v/v DMSO. Different concentrations of formulated compounds were sprayed onto the insect diet at 10 μl, using a custom-built micro atomizer, at two replications.
After application, microtiter plates were incubated at about 28+1° C. and about 80+5% relative humidity for 5 days. Egg and larval mortality were then visually assessed.

[3] = tested on: Southern armyworm (Spodoptera eridania), 2nd instar larvae; experiment: Action on southern armyworm (Spodoptera eridania), 2nd instar larvae, sprayed lima bean plants; conditions: 96 h, 2nd instar larvae on lima bean plants, 4 days after treatment, read-out: mortality in comparison with untreated controls
Description: The active compounds were formulated by a Tecan liquid handler in 100% cyclohexanone as a 10,000 ppm solution supplied in tubes. The 10,000 ppm solution was serially diluted in 100% cyclohexanone to make interim solutions. These served as stock solutions for which final dilutions were made by the Tecan in 50% acetone:50% water (v/v) into 10 or 20 ml glass vials. A nonionic surfactant (Kinetic®) was included in the solution at a volume of 0.01% (v/v). The vials were then inserted into an automated electrostatic sprayer equipped with an atomizing nozzle for application to plants/insects.
Lima bean plants (variety Sieve) were grown 2 plants to a pot and selected for treatment at the 1st true leaf stage. Test solutions were sprayed onto the foliage by an automated electrostatic plant sprayer equipped with an atomizing spray nozzle. The plants were dried in the sprayer fume hood and then removed from the sprayer. Each pot was placed into perforated plastic bags with a zip closure. About 10 to 11 armyworm larvae were placed into the bag and the bags zipped closed. Test plants were maintained in a growth room at about 25° C. and about 20-40% relative humidity for 4 days, avoiding direct exposure to fluorescent light (24 hour photoperiod) to prevent trapping of heat inside the bags. Mortality and reduced feeding were assessed 4 days after treatment, compared to untreated control plants.

[4] = tested on: Diamond back moth (Plutella xylostella); experiment: Action on diamond back moth (Plutella xylostella), cabbage leaf dip; conditions: foliar, 3rd instar larvae on dipped cabbage leaves, 72 hours after treatment, read-out: mortality in comparison with untreated controls
Description: The active compound is dissolved at the desired concentration in a mixture of 1:1 (v/v) distilled water: acetone. Surfactant (Kinetic® HV) is added at a rate of 0.01% (v/v). The test solution is prepared at the day of use.
Leaves of cabbage were dipped in test solution and air-dried. Treated leaves were placed in petri dishes lined with moist filter paper and inoculated with ten 3rd instar larvae. Mortality was recorded 72 hours after treatment. Feeding damages were also recorded using a scale of 0-100%.

[5] = tested on: yellow fever mosquito (Aedes aegypti); experiment: whole plant or invertebrate; conditions: 48 h, larval mortality visually assessed after 2 days, read-out: mortality in comparison with untreated controls
Description: For evaluating control of yellow fever mosquito (Aedes aegypti) the test unit consisted of 96-well-microtiter plates containing 200 μl of tap water per well and 5-15 freshly hatched A. aegypti larvae.
The active compounds or mixtures were formulated using a solution containing 75% (v/v) water and 25% (v/v) DMSO. Different concentrations of formulated compounds or mixtures were sprayed onto the insect diet at 2.5 μl using a custom built micro atomizer, at two replications.
For experimental mixtures in these tests identical volumes of both mixing partners at the desired concentrations respectively, were mixed together.
After application, microtiter plates were incubated at 28+1° C., 80+5% RH for 2 days. Larval mortality was then visually assessed.

[6] = tested on: Orchid thrips (Dichromothrips corbetti); experiment: Action on orchid thrips (Dichromothrips corbetti), floral-immersion technique; conditions: adult thrips, 72 hours after treatment, read-out: mortality in comparison with untreated controls
Description: Dichromothrips corbetti adults used for bioassay were obtained from a colony maintained continuously under laboratory conditions. For testing purposes, the test compound is diluted in a 1:1 mixture of acetone:water (vol:vol), plus Kinetic® HV at a rate of 0.01% v/v.
Thrips potency of each compound was evaluated by using a floral-immersion technique. All petals of individual, intact orchid flowers were dipped into treatment solution and allowed to dry in Petri dishes. Treated petals were placed into individual re-sealable plastic along with about 20 adult thrips. All test arenas were held under continuous light and a temperature of about 28° C. for duration of the assay. After 3 days, the numbers of live thrips were counted on each petal. The percent mortality was recorded 72 hours after treatment.

| SMILES | mortality at 800 ppm [1] [%] | mortality at 800 ppm [2] [%] | mortality at 300 ppm [3] [%] | mortality at 500 ppm [4] [%] | mortality at 800 ppm [5] [%] | mortality at 500 ppm [6] [%] |
| --- | --- | --- | --- | --- | --- | --- |
| CC(C)c1ccccc1NC(=S)N/N=C/c1ccc(-c2cc(NCc3ccc(OC(F)(F)F)cc3)n(C)n2)cc1 [Compound C-3, 1-(2-isopropylphenyl)-3-[(E)-[4-[1-methyl-5-[[4-(trifluoromethoxy)phenyl]methylamino]pyrazol-3-yl]phenyl]methyleneamino]thiourea] | ≥ 75 | ≥ 75 | ≥ 75 | ≥ 75 | ≥ 50 | ≥ 75 |
| CC(C)c1ccccc1NC(=S)N/N=C/c1ccc(-c2cc(NC(=N)c3ccc(OC(F)(F)F)cc3)n(C)n2)cc1 [Compound C-5, 1-(2-isopropylphenyl)-3-[(E)-[4-[1-methyl-5-[[4-(trifluoromethoxy)benzenecarboximidoyl]amino]pyrazol-3-yl]phenyl]methyleneamino]thiourea] | ≥ 75 | ≥ 75 | ≥ 75 | ≥ 75 | ≥ 50 | ≥ 75 |
| CC(C)c1ccccc1N1C(=O)CS/C1=N\N=C\c1ccc(-c2cc(NC(=N)c3ccc(OC(F)(F)F)cc3)n(C)n2)cc1 [Compound C-6, N-[5-[4-[(E)-[(Z)-[3-(2-isopropylphenyl)-4-oxo-thiazolidin-2-ylidene]hydrazono]methyl]phenyl]-2-methyl-pyrazol-3-yl]-4-(trifluoromethoxy) benzamidine] | ≥ 75 | ≥ 75 | ≥ 75 | ≥ 75 | ≥ 50 |  |
| CC(C)c1ccccc1/N=C1\SCC(=O)N1/N=C/c1ccc(-c2cc(OCc3ccc(OC(F)(F)F)cc3)n(C)n2)cc1 [Compound C-12, (2Z)-2-(2-isopropylphenyl)imino-3-[(E)-[4-[1-methyl-5-[[4-(trifluoromethoxy)phenyl]methoxy]pyrazol-3-yl]phenyl]methyleneamino]thiazolidin-4-one] | ≥ 75 | ≥ 75 | ≥ 75 | ≥ 75 | ≥ 50 |  |
| Cc1c(-c2ccc(/C=N/NC(=S)Nc3ccccc3C(C)C)cc2)nn(C)c1NC(=O)c1ccc(C(F)(F)F)cc1 [Compound C-15, N-[5-[4-[(E)-[(2-isopropylphenyl)carbamothioylhydrazono]methyl]phenyl]-2,4-dimethyl-pyrazol-3-yl]-4-(trifluoromethyl)benzamide] | ≥ 75 | ≥ 75 | ≥ 75 | ≥ 75 |  | ≥ 75 |
| CCn1nc(-c2ccc(/C=N/NC(=S)Nc3ccccc3C(C)C)cc2)cc1NC(=O)c1ccc(OC(F)(F)F)cc1 [Compound C-29, N-[2-ethyl-5-[4-[(E)-[(2-isopropylphenyl)carbamothioylhydrazono]methyl]phenyl]pyrazol-3-yl]-4-(trifluoromethoxy)benzamide] | ≥ 75 | ≥ 75 | ≥ 75 | ≥ 75 | ≥ 50 | ≥ 75 |
| CCn1nc(-c2ccc(/C=N/O[C@@H]3O[C@@H](C)[C@H](OC)[C@@H](OC)[C@H]3OC)cc2)cc1NC(=O)c1ccc(OC(F)(F)F)cc1 [Compound C-32, N-[2-ethyl-5-[4-[(E)-[(2S,3R,4R,5S,6S)-3,4,5-trimethoxy-6-methyl-tetrahydropyran-2-yl]oxyiminomethyl]phenyl]pyrazol-3-yl]-4-(trifluoromethoxy)benzamide] | ≥ 75 | ≥ 75 | ≥ 75 | ≥ 75 | ≥ 50 |  |
| CCn1nc(-c2ccc(NC(=O)O[C@@H]3O[C@@H](C)[C@H](OC)[C@@H](OC)[C@H]3OC)cc2)cc1NC(=O)c1ccc(OC(F)(F)F)cc1 [Compound C-33, [(2S,3R,4R,5S,6S)-3,4,5-trimethoxy-6-methyl-tetrahydropyran-2-yl] N-[4-[1-ethyl-5-[[4-(trifluoromethoxy)benzoyl]amino]pyrazol-3-yl]phenyl]carbamate] | ≥ 75 | ≥ 75 |  | ≥ 75 | ≥ 50 |  |
| CCn1nc(-c2ccc(NC(=O)O[C@@H]3O[C@@H](C)[C@H](OC)[C@@H](OC)[C@H]3OC)cc2)cc1NCc1ccc(OC(F)(F)F)cc1 [Compound C-40, [(2S,3R,4R,5S,6S)-3,4,5-trimethoxy-6-methyl-tetrahydropyran-2-yl] N-[4-[1-ethyl-5-[[4-(trifluoromethoxy)phenyl]methylamino]pyrazol-3-yl]phenyl]carbamate] | ≥ 75 | ≥ 75 |  | ≥ 75 | ≥ 50 |  |
| CC(C)c1ccccc1N1C(=O)CS/C1=N\N=C\c1ccc(-c2cc(C(=O)Nc3ccc(OC(F)(F)F)cc3)n(C)n2)cc1 [Compound C-47, 5-[4-[(E)-[(Z)-[3-(2-isopropylphenyl)-4-oxo-thiazolidin-2-ylidene]hydrazono]methyl]phenyl]-2-methyl-N-[4-(trifluoromethoxy)phenyl]pyrazole-3-carboxamide] |  | ≥ 75 | ≥ 75 | ≥ 75 | ≥ 50 |  |
| CC(C)c1ccccc1NC(=S)N/N=C/c1ccc(-c2cc(NC(=O)c3ccc(OC(F)(F)F)cc3)[nH]n2)cc1 [Compound C-57, N-[3-[4-[(E)-[(2-isopropylphenyl)carbamothioylhydrazono]methyl]phenyl]-1H-pyrazol-5-yl]-4-(trifluoromethoxy)benzamide] | ≥ 75 | ≥ 75 |  | ≥ 75 | ≥ 50 | ≥ 75 |
| CC(C)c1ccccc1N1C(=O)CS/C1=N\N=C\c1ccc(-c2cc(NC(=O)c3ccc(OC(F)(F)F)cc3)[nH]n2)cc1 [Compound C-58, N-[3-[4-[(E)-[(Z)-[3-(2-isopropylphenyl)-4-oxo-thiazolidin-2-ylidene]hydrazono]methyl]phenyl]-1H-pyrazol-5-yl]-4-(trifluoromethoxy)benzamide] | ≥ 75 | ≥ 75 |  | ≥ 75 | ≥ 50 | ≥ 75 |
| CC(C)c1ccccc1NC(=S)N/N=C/c1ccc(-c2nc(NC(=O)c3ccc(OC(F)(F)F)cc3)n(C)n2)cc1 [Compound C-63, N-[5-[4-[(E)-[(2-isopropylphenyl)carbamothioylhydrazono]methyl]phenyl]-2-methyl-1,2,4-triazol-3-yl]-4-(trifluoromethoxy)benzamide] | ≥ 75 | ≥ 75 |  | ≥ 75 |  | ≥ 75 |
